{"source": "paper PMC10700596", "about": "(Nature Communications, 2023)", "key": {"EP4R": {"target": "T1, EP4R (Homo sapiens, UniProt P35408)", "T1 construct": "Tango fusion cassette (only 'tango' is printed); expressed in transfected cells; host or cells: HTLA cells (tTA-dependent luciferase reporter, β-arrestin2-TEV fusion)", "experiment": "biochemical", "assay_type": "binding", "conditions": "3H-PGE2; read-out: Radiologand displacement Ki"}, "wild-type EP4R": {"target": "wild-type EP4R (Homo sapiens, UniProt P35408)", "sequence (P35408 whole entry)": "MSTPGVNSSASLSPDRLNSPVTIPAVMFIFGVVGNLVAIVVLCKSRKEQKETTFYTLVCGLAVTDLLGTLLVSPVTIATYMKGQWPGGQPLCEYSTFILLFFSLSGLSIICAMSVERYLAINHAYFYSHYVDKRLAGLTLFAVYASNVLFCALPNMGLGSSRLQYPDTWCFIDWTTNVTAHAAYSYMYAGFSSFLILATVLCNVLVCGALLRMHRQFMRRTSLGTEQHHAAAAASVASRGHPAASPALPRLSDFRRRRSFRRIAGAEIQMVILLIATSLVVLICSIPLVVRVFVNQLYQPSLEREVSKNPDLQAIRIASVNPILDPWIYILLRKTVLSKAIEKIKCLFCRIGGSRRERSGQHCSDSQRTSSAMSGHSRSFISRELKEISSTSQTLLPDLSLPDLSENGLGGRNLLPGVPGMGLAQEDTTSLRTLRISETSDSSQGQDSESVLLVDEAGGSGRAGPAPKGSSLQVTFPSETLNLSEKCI", "experiment": "cell-based"}, "EP4R Thr76Ala mutant": {"target": "EP4R Thr76Ala mutant (Homo sapiens, UniProt P35408, T76A)", "sequence (P35408 whole entry T76A)": "as the sequence (P35408 whole entry) above, with T76A counted along it", "assay_type": "cell-based", "conditions": "IC50 vs WT EP4R", "description": "three independent experiments. Source data are provided as a Source Data file.\n(§1) (1 picture or pasted object on this page, not shown here)"}, "EP2R": {"target": "EP2R (Homo sapiens, UniProt P43116)", "sequence (P43116 whole entry)": "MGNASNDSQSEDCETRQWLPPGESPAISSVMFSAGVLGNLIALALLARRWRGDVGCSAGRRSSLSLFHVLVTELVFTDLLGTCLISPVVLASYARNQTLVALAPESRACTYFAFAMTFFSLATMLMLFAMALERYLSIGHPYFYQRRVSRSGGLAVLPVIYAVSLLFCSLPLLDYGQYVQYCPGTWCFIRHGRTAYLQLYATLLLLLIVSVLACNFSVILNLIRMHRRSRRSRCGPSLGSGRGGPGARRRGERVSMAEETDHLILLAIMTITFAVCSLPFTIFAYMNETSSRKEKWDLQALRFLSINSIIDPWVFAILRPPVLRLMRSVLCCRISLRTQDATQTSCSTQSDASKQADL", "experiment": "Radioligand (3H-PGE2) displacement assay at EP2R", "assay_type": "binding"}, "EP3R": {"target": "EP3R (Homo sapiens, UniProt P43115)", "sequence (P43115 whole entry)": "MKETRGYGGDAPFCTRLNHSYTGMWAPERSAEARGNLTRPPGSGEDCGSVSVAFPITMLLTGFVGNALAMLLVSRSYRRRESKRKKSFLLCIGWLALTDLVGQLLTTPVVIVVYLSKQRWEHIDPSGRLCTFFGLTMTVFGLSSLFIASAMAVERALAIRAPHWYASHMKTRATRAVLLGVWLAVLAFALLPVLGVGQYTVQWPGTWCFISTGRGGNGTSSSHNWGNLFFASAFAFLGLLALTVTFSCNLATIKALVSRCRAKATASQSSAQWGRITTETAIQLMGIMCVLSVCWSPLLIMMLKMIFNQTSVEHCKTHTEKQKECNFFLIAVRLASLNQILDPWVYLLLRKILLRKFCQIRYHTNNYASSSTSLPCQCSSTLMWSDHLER", "experiment": "Radioligand (3H-PGE2) displacement assay at EP3R", "assay_type": "binding"}, "[1]": {"target": "T2, prostaglandin D2 (PGD2) receptor (Homo sapiens, UniProt Q9Y5Y4)", "T2 sequence (Q9Y5Y4 1-395)": "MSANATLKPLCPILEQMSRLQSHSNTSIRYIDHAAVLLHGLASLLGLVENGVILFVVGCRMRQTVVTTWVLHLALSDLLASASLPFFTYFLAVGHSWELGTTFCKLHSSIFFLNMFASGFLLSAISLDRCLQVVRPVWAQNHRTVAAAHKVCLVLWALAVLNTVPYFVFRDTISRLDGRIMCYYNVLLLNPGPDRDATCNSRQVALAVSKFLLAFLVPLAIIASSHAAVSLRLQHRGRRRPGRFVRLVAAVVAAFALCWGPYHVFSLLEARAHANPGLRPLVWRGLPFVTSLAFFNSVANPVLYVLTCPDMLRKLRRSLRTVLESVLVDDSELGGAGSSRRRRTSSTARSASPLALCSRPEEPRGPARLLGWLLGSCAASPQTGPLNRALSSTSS", "experiment": "Functional cAMP production assay, PGD2 receptor", "assay_type": "cell-based"}, "COX-1": {"target": "T3, COX-1 (Homo sapiens, UniProt P23219)", "T3 construct": "purchased Eurofins item 4173", "T3 sequence (P23219 24-599)": "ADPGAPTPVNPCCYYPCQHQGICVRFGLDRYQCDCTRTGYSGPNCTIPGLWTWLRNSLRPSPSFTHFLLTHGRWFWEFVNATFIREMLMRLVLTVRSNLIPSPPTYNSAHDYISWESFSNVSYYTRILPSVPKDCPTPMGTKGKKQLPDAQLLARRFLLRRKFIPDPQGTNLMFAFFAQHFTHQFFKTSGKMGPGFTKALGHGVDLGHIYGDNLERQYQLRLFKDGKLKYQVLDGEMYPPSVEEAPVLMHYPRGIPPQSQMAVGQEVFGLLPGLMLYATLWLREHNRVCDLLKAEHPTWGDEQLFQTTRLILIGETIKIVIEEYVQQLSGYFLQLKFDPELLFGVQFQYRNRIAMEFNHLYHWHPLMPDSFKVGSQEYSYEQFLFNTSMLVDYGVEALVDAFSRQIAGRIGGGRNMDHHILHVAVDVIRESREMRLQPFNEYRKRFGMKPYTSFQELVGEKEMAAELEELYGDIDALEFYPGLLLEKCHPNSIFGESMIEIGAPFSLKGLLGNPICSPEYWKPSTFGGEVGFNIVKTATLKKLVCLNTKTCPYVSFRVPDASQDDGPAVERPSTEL", "experiment": "COX-1 inhibition (Eurofins item 4173)", "assay_type": "biochemical", "description": "(§2) . […] This panel includes several adverse drug reaction receptors such as the serotonin receptor 5HT2b, M1 and M2 muscarinic receptors and adrenergic receptors. […]. page 7:\n(§3) Supplementary Figure 7: Non-GPCR off-target screening for 74. a)-e) Dose-response curves of 74 at […]\n(§4) proliferator-activated receptor gamma (PPARγ, Eurofins item G124). Data in a)-e) and g)-i) represent two technical replicates. Source data are provided as a Source Data file.\nas §1"}, "COX-2": {"target": "T4, COX-2 (Homo sapiens, UniProt P35354)", "T4 construct": "purchased Eurofins item 4186", "T4 sequence (P35354 18-604)": "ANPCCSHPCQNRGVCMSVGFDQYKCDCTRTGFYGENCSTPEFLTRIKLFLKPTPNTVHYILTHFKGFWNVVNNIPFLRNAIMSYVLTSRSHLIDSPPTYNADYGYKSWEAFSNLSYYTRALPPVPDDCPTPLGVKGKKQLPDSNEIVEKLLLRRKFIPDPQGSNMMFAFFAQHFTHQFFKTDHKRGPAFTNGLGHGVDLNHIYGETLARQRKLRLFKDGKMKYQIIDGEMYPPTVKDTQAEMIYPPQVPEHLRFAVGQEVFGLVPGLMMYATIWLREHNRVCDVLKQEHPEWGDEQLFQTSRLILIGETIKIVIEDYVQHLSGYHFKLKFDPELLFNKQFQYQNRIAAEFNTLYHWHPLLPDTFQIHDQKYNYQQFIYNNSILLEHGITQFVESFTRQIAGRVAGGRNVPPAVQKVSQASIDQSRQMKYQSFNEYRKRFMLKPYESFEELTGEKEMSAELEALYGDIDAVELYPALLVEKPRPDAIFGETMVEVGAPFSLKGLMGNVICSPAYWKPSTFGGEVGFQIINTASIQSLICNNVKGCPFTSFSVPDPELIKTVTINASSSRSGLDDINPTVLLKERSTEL", "experiment": "COX-2 inhibition (Eurofins item 4186)", "assay_type": "biochemical", "description": "as §2, §3, §4, §1"}, "mice [2]": {"tested_on": "mice", "assay_type": "in vivo", "conditions": "for CFA-induced allodynia, mechanical threshold (von Frey): individual animals"}, "AURKA": {"target": "AURKA (Homo sapiens, UniProt O14965)", "experiment": "biochemical", "assay_type": "binding", "conditions": "10000 nM; read-out: Percent Control"}, "AXL": {"target": "AXL (Homo sapiens, UniProt P30530)", "experiment": "biochemical", "assay_type": "binding", "conditions": "10000 nM; read-out: Percent Control"}, "BRAF(V600E)": {"target": "BRAF(V600E) (Homo sapiens, UniProt P15056, V600E)", "experiment": "biochemical", "assay_type": "binding", "conditions": "10000 nM; read-out: Percent Control"}, "CSF1R": {"target": "CSF1R (Homo sapiens, UniProt P07333)", "experiment": "biochemical", "assay_type": "binding", "conditions": "10000 nM; read-out: Percent Control"}, "EPHA2": {"target": "EPHA2 (Homo sapiens, UniProt P29317)", "sequence (P29317 24-976)": "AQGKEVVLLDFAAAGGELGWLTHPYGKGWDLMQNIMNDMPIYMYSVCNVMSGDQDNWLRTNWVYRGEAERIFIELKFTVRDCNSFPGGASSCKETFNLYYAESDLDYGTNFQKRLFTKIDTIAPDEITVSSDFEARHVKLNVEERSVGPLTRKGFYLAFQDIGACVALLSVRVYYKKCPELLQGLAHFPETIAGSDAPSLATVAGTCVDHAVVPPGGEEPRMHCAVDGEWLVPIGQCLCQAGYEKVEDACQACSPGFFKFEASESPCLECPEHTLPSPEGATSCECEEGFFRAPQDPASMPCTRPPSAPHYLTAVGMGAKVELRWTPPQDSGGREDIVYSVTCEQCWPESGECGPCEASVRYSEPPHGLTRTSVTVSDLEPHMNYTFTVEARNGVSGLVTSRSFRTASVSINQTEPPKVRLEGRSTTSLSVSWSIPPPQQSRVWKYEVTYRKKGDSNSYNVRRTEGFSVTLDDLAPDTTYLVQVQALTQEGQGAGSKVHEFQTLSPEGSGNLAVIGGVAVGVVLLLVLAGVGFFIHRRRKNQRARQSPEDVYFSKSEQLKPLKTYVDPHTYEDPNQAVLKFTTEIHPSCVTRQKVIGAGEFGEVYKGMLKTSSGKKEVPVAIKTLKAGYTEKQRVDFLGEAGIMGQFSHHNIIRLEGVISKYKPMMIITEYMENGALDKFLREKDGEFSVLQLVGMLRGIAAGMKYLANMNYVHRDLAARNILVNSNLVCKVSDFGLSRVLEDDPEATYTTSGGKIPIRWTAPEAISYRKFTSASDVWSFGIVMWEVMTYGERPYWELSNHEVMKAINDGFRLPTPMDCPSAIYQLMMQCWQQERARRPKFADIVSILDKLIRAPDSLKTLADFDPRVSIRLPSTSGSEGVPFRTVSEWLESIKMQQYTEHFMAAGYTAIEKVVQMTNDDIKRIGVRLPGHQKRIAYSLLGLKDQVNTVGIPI", "experiment": "biochemical", "assay_type": "binding", "conditions": "10000 nM; read-out: Percent Control"}, "IGF1R": {"target": "IGF1R (Homo sapiens, UniProt P08069)", "experiment": "biochemical", "assay_type": "binding", "conditions": "10000 nM; read-out: Percent Control", "description": "(§5) Source data are provided as a Source Data file."}, "KIT(D816V)": {"target": "KIT(D816V) (Homo sapiens, UniProt P10721, D816V)", "experiment": "biochemical", "assay_type": "binding", "conditions": "10000 nM; read-out: Percent Control", "description": "as §5"}, "MAP3K4": {"target": "MAP3K4 (Homo sapiens, UniProt Q9Y6R4)", "experiment": "biochemical", "assay_type": "binding", "conditions": "10000 nM; read-out: Percent Control", "description": "as §5"}, "MLK1": {"target": "MLK1 (Homo sapiens, UniProt P80192)", "experiment": "biochemical", "assay_type": "binding", "conditions": "10000 nM; read-out: Percent Control", "description": "as §5"}, "PAK4": {"target": "PAK4 (Homo sapiens, UniProt O96013)", "experiment": "biochemical", "assay_type": "binding", "conditions": "10000 nM; read-out: Percent Control", "description": "as §5"}, "PDGFRB": {"target": "PDGFRB (Homo sapiens, UniProt P09619)", "sequence (P09619 33-1106)": "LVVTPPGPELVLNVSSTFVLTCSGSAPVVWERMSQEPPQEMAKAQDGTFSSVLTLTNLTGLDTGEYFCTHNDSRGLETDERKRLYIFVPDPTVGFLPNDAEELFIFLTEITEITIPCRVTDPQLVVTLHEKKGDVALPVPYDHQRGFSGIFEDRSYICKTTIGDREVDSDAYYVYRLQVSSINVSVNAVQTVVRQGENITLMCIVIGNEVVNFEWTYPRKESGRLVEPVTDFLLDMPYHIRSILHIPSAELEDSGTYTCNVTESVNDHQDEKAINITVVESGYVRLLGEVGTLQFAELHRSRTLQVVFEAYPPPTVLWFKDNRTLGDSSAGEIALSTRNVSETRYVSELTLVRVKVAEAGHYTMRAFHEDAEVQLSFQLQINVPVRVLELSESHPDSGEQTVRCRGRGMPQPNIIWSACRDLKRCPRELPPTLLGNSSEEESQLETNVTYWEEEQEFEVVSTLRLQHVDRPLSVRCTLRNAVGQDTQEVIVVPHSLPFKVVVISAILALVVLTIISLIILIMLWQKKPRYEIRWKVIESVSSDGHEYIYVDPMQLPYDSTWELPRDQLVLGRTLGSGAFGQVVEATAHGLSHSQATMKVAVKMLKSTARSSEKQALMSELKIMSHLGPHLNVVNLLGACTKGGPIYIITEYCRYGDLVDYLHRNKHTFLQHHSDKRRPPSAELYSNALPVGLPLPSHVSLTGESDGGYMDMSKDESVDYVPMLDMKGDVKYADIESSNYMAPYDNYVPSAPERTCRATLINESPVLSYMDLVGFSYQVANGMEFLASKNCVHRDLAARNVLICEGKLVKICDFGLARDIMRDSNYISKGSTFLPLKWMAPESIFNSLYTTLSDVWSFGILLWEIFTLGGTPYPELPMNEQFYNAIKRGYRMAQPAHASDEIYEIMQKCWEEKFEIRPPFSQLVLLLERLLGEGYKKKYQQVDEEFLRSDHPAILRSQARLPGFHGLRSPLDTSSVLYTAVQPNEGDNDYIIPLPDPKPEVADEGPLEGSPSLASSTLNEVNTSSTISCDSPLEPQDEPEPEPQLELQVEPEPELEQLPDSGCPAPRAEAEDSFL", "experiment": "biochemical", "assay_type": "binding", "conditions": "10000 nM; read-out: Percent Control", "description": "as §5"}, "PIM2": {"target": "PIM2 (Homo sapiens, UniProt Q9P1W9)", "experiment": "biochemical", "assay_type": "binding", "conditions": "10000 nM; read-out: Percent Control", "description": "as §5"}, "RET": {"target": "RET (Homo sapiens, UniProt P07949)", "experiment": "biochemical", "assay_type": "binding", "conditions": "10000 nM; read-out: Percent Control", "description": "as §5"}, "JNK2": {"target": "JNK2 (Homo sapiens, UniProt P45984)", "sequence (P45984 whole entry)": "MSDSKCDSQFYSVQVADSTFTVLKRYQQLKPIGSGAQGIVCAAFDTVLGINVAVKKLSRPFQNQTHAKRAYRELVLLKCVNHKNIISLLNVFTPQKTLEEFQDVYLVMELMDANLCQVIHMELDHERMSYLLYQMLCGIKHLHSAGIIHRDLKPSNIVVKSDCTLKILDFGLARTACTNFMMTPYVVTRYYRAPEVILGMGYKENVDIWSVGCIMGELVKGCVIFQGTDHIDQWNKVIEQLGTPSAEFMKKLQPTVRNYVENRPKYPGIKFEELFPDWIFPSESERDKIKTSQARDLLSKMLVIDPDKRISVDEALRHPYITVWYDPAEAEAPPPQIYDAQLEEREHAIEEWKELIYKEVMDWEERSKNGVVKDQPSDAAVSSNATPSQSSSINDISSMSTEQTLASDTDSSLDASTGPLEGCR", "experiment": "biochemical", "assay_type": "binding", "conditions": "10000 nM; read-out: Percent Control"}, "TGFBR1": {"target": "TGFBR1 (Homo sapiens, UniProt P36897)", "experiment": "biochemical", "assay_type": "binding", "conditions": "10000 nM; read-out: Percent Control"}, "mice [3]": {"tested_on": "mice", "assay_type": "in vivo", "conditions": "for Carrageenan-induced allodynia, mechanical threshold (von Frey): individual animals"}, "mice [4]": {"tested_on": "mice", "assay_type": "in vivo"}}, "note": "pIC50, pKi: −log10 of the molar value. Values joined by “and” are separate entries in the source; they are usually repeats but may differ in a detail not shown here. Equal values may be shown once. “Also recorded” adds a separate entry of the source. Read-outs that look alike come from different tables or passages of the source."}
{"smiles": "O=C(O)C1CCC2(CC1)CC(Nc1ncnc3[nH]c4c(F)cccc4c13)C2", "note": "(stereo not shown) [Compound 74, OC(=O)C1CCC2(CC(C2)NC=3N=CN=C4NC=5C(F)=CC=CC5C34)CC1]", "values": [{"measurement": "pKi", "setting": "EP4R", "result": 6.44}, {"measurement": "pIC50", "setting": "wild-type EP4R", "result": 7.10}, {"measurement": "mode of antagonism by Schild analysis", "setting": "wild-type EP4R", "result": "competitive antagonism"}, {"measurement": "pKi", "setting": "wild-type EP4R; calculated using the Cheng Prusoff equation, read-out: Arrestin-BRET Ki*", "result": 7.81}, {"measurement": "reduced potency at the Thr76Ala mutant", "setting": "EP4R Thr76Ala mutant", "result": 30, "unit": "fold"}, {"measurement": "binding to EP2 receptor", "setting": "EP2R", "result": "no binding"}, {"measurement": "binding to EP3 receptor", "setting": "EP3R", "result": "no binding"}, {"measurement": "off-target activity at prostaglandin D2 receptor", "setting": "[1]", "result": "no off-target activities"}, {"measurement": "inhibitory / off-target activity at COX-1", "setting": "COX-1; 3 µM", "result": "no off-target activity; also recorded: no inhibitory activity"}, {"measurement": "%Inhibition of Control Values", "setting": "COX-1; COX-1, 3 µM, technical replicates", "result": "-5.7% and -9.9%"}, {"measurement": "inhibitory / off-target activity at COX-2", "setting": "COX-2; 3 µM", "result": "no off-target activity; also recorded: no inhibitory activity"}, {"measurement": "%Inhibition of Control Values", "setting": "COX-2; COX-2, 3 µM, technical replicates", "result": "-20.9% and -2.6%"}, {"measurement": "CFA-induced allodynia, mechanical threshold (von Frey)", "setting": "mice [2]; 10 mg/kg IP, day 3", "result": "31.5 and 39 and 36.3 and 64.2 and 20.2"}, {"measurement": "CFA-induced allodynia, mechanical threshold (von Frey)", "setting": "mice [2]; 30 mg/kg IP, day 4", "result": "35.4 and 28.1 and 62 and 31.3 and 22.9"}, {"measurement": "effect on CFA-induced mechanical allodynia", "setting": "mice [2]; 10 and 30 mg/kg i.p.", "result": "significantly decreased; also recorded: reduced"}, {"measurement": "remaining activity at 10 µM", "setting": "AURKA", "result": 22, "unit": "%"}, {"measurement": "remaining activity at 10 µM", "setting": "AXL", "result": 47, "unit": "%"}, {"measurement": "remaining activity at 10 µM", "setting": "BRAF(V600E)", "result": 84, "unit": "%"}, {"measurement": "remaining activity at 10 µM", "setting": "CSF1R", "result": 69, "unit": "%"}, {"measurement": "remaining activity at 10 µM", "setting": "EPHA2", "result": 83, "unit": "%"}, {"measurement": "remaining activity at 10 µM", "setting": "IGF1R", "result": 100, "unit": "%"}, {"measurement": "remaining activity at 10 µM", "setting": "KIT(D816V)", "result": 76, "unit": "%"}, {"measurement": "remaining activity at 10 µM", "setting": "MAP3K4", "result": 92, "unit": "%"}, {"measurement": "remaining activity at 10 µM", "setting": "MLK1", "result": 45, "unit": "%"}, {"measurement": "remaining activity at 10 µM", "setting": "PAK4", "result": 65, "unit": "%"}, {"measurement": "remaining activity at 10 µM", "setting": "PDGFRB", "result": 60, "unit": "%"}, {"measurement": "remaining activity at 10 µM", "setting": "PIM2", "result": 100, "unit": "%"}, {"measurement": "remaining activity at 10 µM", "setting": "RET", "result": 5.9, "unit": "%"}, {"measurement": "remaining activity at 10 µM", "setting": "JNK2", "result": 41, "unit": "%"}, {"measurement": "remaining activity at 10 µM", "setting": "TGFBR1", "result": 54, "unit": "%"}]}
{"smiles": "O=C([O-])C1CCC2(CC1)CC(Nc1ncnc3[nH]c4c(F)cccc4c13)C2.[Na+]", "note": "(stereo not shown) [Compound 77, [Na+].[O-]C(=O)C1CCC2(CC(C2)NC=3N=CN=C4NC=5C(F)=CC=CC5C34)CC1]", "values": [{"measurement": "Carrageenan-induced allodynia, mechanical threshold (von Frey)", "setting": "mice [3]; 10 mg/kg IP", "result": "27 and 58.1 and 18.1 and 18.3 and 32 and 31.3 and 24.3 and 20.9 and 32.5 and 40"}, {"measurement": "effect on carrageenan-mediated mechanical allodynia", "setting": "mice [3]; 10 mg/kg i.p.", "result": "equal anti-allodynic effects; also recorded: equally reduce carrageenan-mediated mechanical allodynia"}, {"measurement": "Carrageenan-induced allodynia, mechanical threshold (von Frey)", "setting": "mice [3]; 30 mg/kg IP", "result": "30.3 and 39.4 and 44.8 and 39.1 and 40.4"}, {"measurement": "Carrageenan-induced allodynia, mechanical threshold (von Frey)", "setting": "mice [3]; 30 mg/kg PO", "result": "45.8 and 24.2 and 57.3 and 32.3 and 42.9 and 24.5 and 10.4 and 51.4 and 11.4 and 35.4"}, {"measurement": "effect on carrageenan-mediated mechanical allodynia", "setting": "mice [3]; 30 mg/kg i.p. or p.o.", "result": "significant anti-allodynic properties"}, {"measurement": "PGE2-induced allodynia, mechanical threshold (von Frey)", "setting": "mice [4]; 30 mg/kg IP, 30 min before 10 µg intraplantar PGE2, individual animals", "result": "121.3 and 118.3 and 44.9 and 101.1 and 46.9"}, {"measurement": "effect on PGE2-induced mechanical hypersensitivity", "setting": "mice [4]; mouse, in vivo", "result": "dose-dependently prevented mechanical hypersensitivity; also recorded: dose-dependently reduces mechanical allodynia"}]}
